Where two headings read alike, the source gives them in different places.

Consider five compounds from US6242428A, “Nucleoside analogs and uses in treating Plasmodium falciparum infection” (Unisearch Limited, priority 1998, dated 2001).

In one data set the test system is P. falciparum. As to the kind of experiment: In vitro toxicity against P. falciparum in culture (radiolabelled hypoxanthine incorporation / lactate dehydrogenase assay). Format: cell-based, Plasmodium falciparum, FCQ27. The method, then:
P. falciparum, FCQ27, was maintained in culture using the techniques described by Trager & Jensen (W. Traqer and J. B. Jensen, Science, 193 673-675 (1976)). Cultures containing 2% hematocrit suspensions of parasitized human type O^+ erythrocytes in RPMI 1640 medium, supplemented with 25 mM HEPES-KOH, pH 7.2, 25 mM NaHCO3 and 10% human type O^+ serum (v/v) are maintained in modular incubator chambers at 37° C. in a gas mixture of 5% O2, 5% CO2 and 90% N2. The isolate of P. falciparum used in these experiments was FCQ27, routinely maintained in synchronized or asynchronous in vitro cultures at low hematocrit.
The potential toxicity of nucleoside analogues against P. falciparum in culture was tested in microtitre plates over the range of drug concentrations for 24 hours. The procedures for monitoring parasite viability is well established (A. M. Gero, H. V. Scott, W. J. O'Sullivan and R. I. Christopherson, Mol. Biochem. Parasitol. 34, 87-89 (1989)) and is based on radiolabelled hypoxanthine or isoleucine incorporation. The incorporation of [G-^3 H]hypoxanthine into the nucleic acids of P. falciparum was used to assess the viability of the parasite in vitro. Microculture plates were prepared with each well containing 225 μl of a 2% hematocrit culture of asynchronous parasited erythrocytes (1% parasitized cells). Each plate, containing varying concentrations of the drug to be studied (up to 200 μM final concentration for initial screen), was incubated for 24 h at 37° C. in a gas mixture of 5% O2, 5% CO2 and 90% N2, at which point [G-^3 H] hypoxanthine was added to each well and the incubation continued under identical conditions for a further 18-20 h. The control infected cells (i.e. without drug), routinely reached a parasitemia of 6-8% before harvesting. Expediency was aided by 96-well plate counter using lactate dehydrogenase for the drug susceptibility assay (L. K. Basco, F. Marguet, M. T. Makler and J. Lebbras, Exp. Parasitol. 80, 260-271 (1995); M. T. Makler and D. J. Hinrichs; Am. J. Trop. Med. Hyg. 48, 205-210 (1993)). This assay gave the identical results to the hypoxanthine technique. In addition, for each experiment, microscopic counting of Giemsa stained thin slides was used as a control.
The biological screen involved evaluation of the compounds against the protozoan P. falciparum in in vitro culture. The range of drug concentrations was used independently by two assays. One, radiolabelled hypoxanthine incorporation into the nucleic acid of P. falciparum, and the other, more expedient assay, a 96-well plate susceptibility assay using lactate dehydrogenase. Both assays gave identical results. In addition, microscopic counting of Giemsa stained thin slides was used as a control. Examples of experimental curves are attached as Appendix 2. The biological tests were done at several concentrations. The highest concentration was 200 μM, the compounds were considered active at concentrations less than 40 μM.

Data set [1] deals with erythrocyte infected with P. falciparum. The conditions noted are these: cited from earlier work.
In data set [2] the test system is normal erythrocytes and other cell types. The conditions noted are these: cited from earlier work.
Data set [3] deals with human prostate phosphotransferase. The conditions noted are these: cited from earlier work.
Data set [4] is described as follows: Solubility remark in the in vitro testing. The conditions noted are these: Tables 1 and 6.
The test system of data set [5] is P. falciparum strain D6 (chloroquin non-resistant). As to the kind of experiment: U.S. Army Antimalarial Test Program in vitro screen, strain D6. The format is cell-based, Plasmodium falciparum. The conditions noted are these: 15 dimers, D6 and W2 stated together. The text has this: (§1) Fifteen L-nucleoside dimers (L-101, L-103, L-103A, L-107, L-110, L-111, L-112, L-114, L-117, L-120, L-122, L-124, L-125, L-133 & L-138) from Lipitek's library were submitted for in vitro screen to the U.S. Army Antimalarial Test Program (for the structures of the compounds, see FIG. 7). The compounds have been tested for their activity against two P. falciparum strains: D6 (chloroquin non-resistant) and W2 (chloroquin resistant).

Data set [6] relates to P. falciparum strain W2 (chloroquin resistant). The experiment in a line: U.S. Army Antimalarial Test Program in vitro screen, strain W2. The format is cell-based, Plasmodium falciparum. The conditions noted are these: 15 dimers, D6 and W2 stated together.
From the text: as §1

Data set [7] has as its system P. falciparum infected erythrocytes (trophozoites). The format is in vitro ADME, human erythrocytes infected with Plasmodium falciparum. How it is done:
(§2) The metabolism of the L-nucleoside conjugates was studied by HPLC analysis. The primary aim was to determine their ability to be catabolized by parasite purine salvage enzymes. Some effect on the purine metabolic pools was also observed.
(§3) For each HPLC determination 200 μL of packed cells of 80-90% trophozoite infected cells were used. These were isolated from in vitro cultures by synchronization of the parasites in in vitro cultures using sterile D-sorbitol (L. Lambros and J. P. Vanderberg, Parasitol. 65, 418-420 (1979)) followed by separation of the trophozoites from non infected erythrocytes by Percoll gradients as described previously (A. M. Gero, H. V. Scott, W. J. O'Sullivan and R. I. Christopherson, Mol. Biochem. Parasitol. 34, 87-89 (1989)). Trophozoites were incubated at 37° C. for 2 hours with each compound to be tested. Compounds were incubated with both whole infected cells as whole and lyzed uninfected normal erythrocytes to determine:
a) entry to the cell (whether they were transported);
Drug incubation was terminated by centrifugation through silicon oil using the method of Upston and Gero (J. M. Upston and A. M. Gero, Biochem. Biophys. Acta. 1236, 249-258 (1995)). This procedure separated intact trophozoites from extracellular non-transported drug solution.
(§4) The metabolism of nucleosides with potential chemotherapeutic activity was assessed by the analysis of cytoplasmic samples by reverse phase ion-pair high performance liquid chromatography (R. S. Toguzov, Y. V. Tikhonov, A. M. Pimenov, V. Prokudin, Journal of Chromatography, I. Biomedical Appl. 434, 447-453 (1988)). Nucleotides, nucleosides and bases were separated by this HPLC method.
It has been established that transport and uptake in parasite invaded cells is different from that of normal blood erythrocytes (A. M. Gero & A. M. Wood, In: Pyrine & Pyrimidine Methabolism in Man VII, Part A. (R. A. Harkness et al., Eds) Plenum Press, NY, 169-172 (1991)). Invasion by the malaria parasite comprises the cell membrane, allowing penetration of unnatural substances of various size and shape, whereas normal cells are very selective in uptake. It was shown that L-nucleosides and their derivatives easily penetrate invaded cells, while they have a very slow rate of uptake into normal cells, if they enter at all. In order to obtain preliminary data on transport, uptake and metabolism, the HPLC method was used to analyze the following 10 Lipitek compounds: L-101, L-103, L-109, L-111, L-117, L-133, L-138, GCl 1007, GCl 1027, GCl 1069.
(§5) These compounds were chosen for the identification of possible metabolites. In this experiment the compounds were incubated with both whole infected cells, and with whole and lysed uninfected cells, followed by the separation of unreacted compound and HPLC analysis.

Data set [8] has the same test system. The format is in vitro ADME, human erythrocytes infected with Plasmodium falciparum. The method, then: as §2, §3
b) the metabolic effect within the cell (was the compound metabolized);
as §4, §5
This is another data set of the same source.

Regarding `Nc1ncnc2c1ncn2[C@H]1O[C@@H](CO)[C@H](O)[C@@H]1O` [GCI 1032, β-L-adenosine], the IC50 (commonly the concentration at which inhibition is half-maximal) in the data set on P. falciparum (Plasmodium falciparum, 24 h) is > 200 µM. For the same compound, the “transport into infected erythrocyte” value in [1] is “selectively transported into an erythrocyte infected with P. falciparum”. Moreover, the “permeability/uptake of normal erythrocytes and other cells” value in data set [2] is listed as “completely impermeable”.

`O=c1ccn([C@H]2O[C@@H](CO)[C@H](O)[C@@H]2O)c(=O)[nH]1` [β-L-uridine]: the “phosphorylation at the 5'-position” value in data set [3] is on record as “not phosphorylated at the 5'-position”.

As for α-L-FUdR 3'-5'SATE [B07], in [4], the “Solubility (printed in the IC50/ID50 column)” value is listed as “Solubility problem”.

For β-L-FUdR 3'-5'SATE [B05], the “Solubility (printed in the IC50/ID50 column)” value in data set [4] is “Solubility problem”.

Consider β-L-dG, β-D-FUdR [L-133], for which the “In vitro activity against P. falciparum, in words” value with P. falciparum is listed as “most active”. Besides, the IC50 at P. falciparum (Table 1, 24 h drug exposure, up to 200 μM, read-out: IC50) is 14 µM; on P. falciparum (Table 2, FUdR linkage position 5', read-out: IC50), 14 µM. Besides, the “toxicity against P. falciparum, in words” value in the data set with P. falciparum (statement in the transport and metabolism study) was “toxic against P. falciparum”. The “activity ranking in words, strain D6” value in data set [5] is “most active”. Further, the “activity ranking in words, strain W2” value in data set [6] is listed as “most active”. Further, in [7], the “entry to the infected cell” value is given as “entered the infected cells”. Besides, the “metabolism by the infected cells” value in data set [8] is on record as “metabolized by the infected cells”.
